Laboratory results from patent US6407091B1, “β-lactamase inhibiting compounds” (Research Corporation Technologies, Inc., priority 1999, dated 2002).
Where a name gives a salt, the structure may show the parent alone. Read-outs that look alike come from different tables or passages of the source.

What was measured:
[1] = molecular target: Class C β-lactamase of Enterobacter cloacae P-99 (Enterobacter cloacae, UniProt P05364); assay: IC50 for inhibition of Class C β-lactamase of Enterobacter cloacae P-99 (nitrocefin hydrolysis); assay type: biochemical
Method: (§1) Representative compounds of formula I were evaluated as inhibitors of the Class C β-lactamase of Enterobacter cloacae P-99, a cephalosporinase, and TEM-1, a penicillinase, by relative IC50 analysis. The IC50 value represents the concentration of inhibitor required to effect a 50% loss of activity of free enzyme. The IC50 value of each compound was determined as follows. Following a 10 minute incubation of a dilute solution of enzyme (2.56 nM) and inhibitor (<0.64 mM), a […] of this incubation mixture was then further diluted into 1 mL nitrocefin solution, and the rate of hydrolysis was measured during a 1 minute period by monitoring the absorbance of nitrocefin as a function of time.

TEM-1, a penicillinase = TEM-1, a penicillinase (Escherichia coli, UniProt P62593); assay: IC50 for inhibition of TEM-1 β-lactamase (nitrocefin hydrolysis); assay type: biochemical; conditions: read-out: IC50 Values for Inhibition of β-lactamase Derived from TEM-1
Method: as §1

[2] = read-out: IC50 Values for Inhibition of β-lactamase Derived from P-99
[3] = Table 1, 10 minute incubation of enzyme (2.56 nM) and inhibitor, nitrocefin hydrolysis, relative to tazobactam standard
[4] = Table 1, 10 minute incubation of enzyme (2.56 nM) and inhibitor, nitrocefin hydrolysis, relative to tazobactam standard, read-out: IC50 Values for Inhibition of β-lactamase Derived from P-99
[5] = Table 2, compounds of formula IV, procedure similar to Table 1
[6] = Table 2, compounds of formula IV, procedure similar to Table 1, read-out: IC50 Values for Inhibition of β-lactamase Derived from P-99

Sequence of TEM-1, a penicillinase (P62593 24-286 limits assumed): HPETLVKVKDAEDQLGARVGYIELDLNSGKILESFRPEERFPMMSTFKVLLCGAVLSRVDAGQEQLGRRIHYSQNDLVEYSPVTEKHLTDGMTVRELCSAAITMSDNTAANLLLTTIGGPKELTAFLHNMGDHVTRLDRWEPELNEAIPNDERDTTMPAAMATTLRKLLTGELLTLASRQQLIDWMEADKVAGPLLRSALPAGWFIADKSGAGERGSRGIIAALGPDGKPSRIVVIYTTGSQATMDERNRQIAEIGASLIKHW
Sequence of Class C β-lactamase of Enterobacter cloacae P-99 (P05364 21-381): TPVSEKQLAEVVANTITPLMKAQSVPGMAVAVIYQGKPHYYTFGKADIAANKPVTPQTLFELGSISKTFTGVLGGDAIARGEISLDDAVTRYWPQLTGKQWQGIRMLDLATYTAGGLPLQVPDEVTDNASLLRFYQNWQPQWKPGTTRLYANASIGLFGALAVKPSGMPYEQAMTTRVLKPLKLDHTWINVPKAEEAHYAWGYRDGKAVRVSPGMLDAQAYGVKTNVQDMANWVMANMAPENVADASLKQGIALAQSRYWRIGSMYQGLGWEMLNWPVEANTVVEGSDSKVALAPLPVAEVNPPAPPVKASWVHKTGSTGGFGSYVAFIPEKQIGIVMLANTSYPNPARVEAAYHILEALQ

**Q.** For `C=C1C(COC(C)=O)=C(C(=O)O)N2C(=O)C(=Cc3ccccn3)C2S1(=O)=O` (stereo not shown) [Compound 6a, Sodium Salt of 7-[(Z)-(2′-Pyridyl)methylene]-2-(exomethylidene)cephalosporanic Acid Sulfone], which IC50 [1] is on record?
**A.** 0.165 µM

**Q.** With `C=C1C(COC(C)=O)=C(C(=O)O)N2C(=O)C(=CC(=O)OC(C)(C)C)C2S1(=O)=O` (stereo not shown) [Compound 6b, Sodium Salt of 7-[(Z)-(tert-Butoxycarbonyl)methylene]-2-(exomethylidene)cephalosporinate Sulfone] as the compound, how does the IC50 [1, 2] read?
**A.** 1.55 µM

**Q.** Which IC50 [1, 2] does the source give for `C=C1C(C)=C(C(=O)O)N2C(=O)C(=Cc3ccccn3)C2S1(=O)=O` (stereo not shown) [Compound 6c, Sodium Salt of 7-((Z)-(2″-Pyridinyl)methylene]-3′-desacetoxy-2-(exomethylidene)cephalosporinate Sulfone] here?
**A.** 0.039 µM

**Q.** For `C=C1C(C)=C(C(=O)O)N2C(=O)C(=CC(=O)OC(C)(C)C)C2S1(=O)=O` (stereo not shown) [Compound 6d, Sodium Salt of 7-[(Z)-(tert-Butoxycarbonyl)methylene]-3′-desacetoxy-2(exomethylidene)cephalosporinate Sulfone], which IC50 [1, 2] is on record?
**A.** 48.6 µM

**Q.** `C=C1C(CSc2nnnn2C)=C(C(=O)O)N2C(=O)C(=CC(=O)OC(C)(C)C)C2S1(=O)=O` (stereo not shown) [Compound 6f, Sodium Salt of Benzhydryl 7-[(Z)-(tert-Butylcarboxy)methylene]-3′-desacetoxy-2-exomethylidene-3′-[1″-methyl-1″H-tetrazol-5″-yl)thio]cephalosporinate Sulfone] was tested. Which IC50 [1, 2] did it give?
**A.** 2.38 µM

**Q.** Which results are given for `C=C1C(COC(C)=O)=C(C(=O)O)N2C(=O)/C(=C/C(=O)O)C2S1(=O)=O` (stereo not shown) [Compound 6h, Disodium Salt of 7-[(Z)-(Carboxy)methylene]-2-(exomethylidene)-cephalosporinate Sulfone]?
**A.** IC50 (TEM-1, a penicillinase; [3]): 498 µM; IC50 [1, 4]: 2.49 µM

**Q.** Which IC50 (TEM-1, a penicillinase; [3]) does the source give for `C=C1C(C)=C(C(=O)O)N2C(=O)/C(=C/C(=O)O)C2S1(=O)=O` (stereo not drawn) [Compound 6i, Disodium Salt 7-[(Z)(Carboxy)methylene]-3′-desacetoxy-2-(exo-methylidene)cephalosporinate Sulfone] here?
**A.** 277 µM

**Q.** What about the IC50 [1, 4] of the same compound?
**A.** 36.8 µM

**Q.** `N#C/C=C/C1=C(C(=O)O)N2C(=O)/C(=C/c3ccccn3)C2S(=O)(=O)C1` (stereo not shown) [Compound 13a, Sodium 3-[2′E-(Cyanoethenyl)]-1,1-dioxo-7Z-[(2″-pyridyl)methylidene]-3-cephem-4-carboxylate] was tested. Which IC50 (TEM-1, a penicillinase; [5]) did it give?
**A.** 2.7 µM

**Q.** And the IC50 [1]?
**A.** 0.01 µM

**Q.** What does the source list for `COC(=O)/C=C/C1=C(C(=O)O)N2C(=O)/C(=C/c3ccccn3)C2S(=O)(=O)C1` (stereo not shown) [Compound 13b, Sodium 1,1-Dioxo-3-[2′E-(methoxycarbonylethenyl)]-7Z-[(2″-pyridyl)methylidene]-3-cephem-4-carboxylate]?
**A.** IC50 (TEM-1, a penicillinase; [5]): 0.02 µM; IC50 [1]: 0.2 µM

**Q.** `O=C(O)C1=C(/C=C/c2cccc[n+]2[O-])CS(=O)(=O)C2/C(=C\c3ccccn3)C(=O)N12` (stereo not shown) [Compound 13c, Sodium 1,1-Dioxo-3-{2′E-[2″-(pyridin-N-oxide)ethenyl]}-7Z-[(2′″-pyridyl)methylidene]-3-cephem-4-carboxylate] was tested. Which IC50 (TEM-1, a penicillinase; [5]) did it give?
**A.** 0.006 µM

**Q.** And the IC50 [1, 6]?
**A.** 0.6 µM

**Q.** `CC(C)(C)OC(=O)/C=C/C1=C(C(=O)O)N2C(=O)/C(=C/c3ccccn3)C2S(=O)(=O)C1` (stereo not shown) [Compound 13e, Sodium 1,1-Dioxo-3-[2′E-(t-butoxycarbonylethenyl)]-7Z-[(2″-pyridyl)methylidene]-3-cephem-4-carboxylate] was tested. Which IC50 [1, 6] did it give?
**A.** 1.48 µM

**Q.** How did the IC50 (TEM-1, a penicillinase; [5]) turn out when `COC(=O)/C(Cl)=C/C1=C(C(=O)O)N2C(=O)/C(=C/c3ccccn3)C2S(=O)(=O)C1` (stereo not shown) [Compound 13f] was run?
**A.** 0.02 µM

**Q.** And the IC50 [1, 6]?
**A.** 0.2 µM

**Q.** With `O=C(O)/C=C/C1=C(C(=O)O)N2C(=O)/C(=C/c3ccccn3)C2S(=O)(=O)C1` (stereo not shown) [Compound 13g, Disodium 3-[2′E-Carboxyethenyl]-1,1-dioxo-7Z-[(2″-pyridyl)methylidene]-3-cephem-4-carboxylate] as the compound, how does the IC50 (TEM-1, a penicillinase; [5]) read?
**A.** 2.52 µM

**Q.** And the IC50 [1, 6]?
**A.** 0.31 µM

**Q.** Which IC50 (TEM-1, a penicillinase; [5]) does the source give for `N#CC1=C(C(=O)O)N2C(=O)/C(=C/c3ccccn3)C2S(=O)(=O)C1` (stereo not shown) [Compound 19, Sodium 1,1-Dioxo-3-cyano-7Z-[(2′-pyridyl)methylidene]-3-cephem-4-carboxylate] here?
**A.** 2.34 µM

**Q.** And the IC50 [1]?
**A.** 0.029 µM

**Q.** Which IC50 (TEM-1, a penicillinase) does the source give for `CC(=O)OCC1=C(C(=O)O)N2C(=O)C(=Cc3ccccn3)C2S(=O)(=O)C1` (stereo not shown) [II: R1=2-pyr, R3=CH2OAc, reference compound] here?
**A.** 14.4 µM

**Q.** And the IC50 [1]?
**A.** 1.35 µM

**Q.** How did the IC50 (TEM-1, a penicillinase) turn out when `CC1=C(C(=O)O)N2C(=O)/C(=C/c3ccccn3)C2S(=O)(=O)C1` (stereo not shown) [II: R1=2-pyr, R3=CH3, reference compound] was run?
**A.** 377 µM

**Q.** What about the IC50 [1] of the same compound?
**A.** 6.1 µM

**Q.** What does the source list for `Cn1nnnc1SCC1=C(C(=O)O)N2C(=O)C(=CC(=O)OC(C)(C)C)C2S(=O)(=O)C1` (stereo not shown) [II: R1=CO2-t-Bu, R3=CH2S(C2N4H3), reference compound]?
**A.** IC50 (TEM-1, a penicillinase): 0.123 µM; IC50 [1]: 112 µM

**Q.** How did the IC50 (TEM-1, a penicillinase) turn out when `CC1=C(C(=O)O)N2C(=O)C(=CC(=O)OC(C)(C)C)C2S(=O)(=O)C1` (stereo not shown) [II: R1=CO2-t-Bu, R3=CH3, reference compound] was run?
**A.** 111 µM

**Q.** What about the IC50 [1] of the same compound?
**A.** 199 µM

**Q.** What does the source list for `C=C1C(=O)N2C(C(=O)O)=C(COC(C)=O)C(=C)S(=O)(=O)C12` (stereo not shown) [III: R3=CH2OAc, reference compound]?
**A.** IC50 (TEM-1, a penicillinase): > 2000 µM; IC50 [1]: 315 µM

**Q.** Which IC50 (TEM-1, a penicillinase; [3]) does the source give for “Sodium [2-1(Bisthiomethyl)exomethylene]-7-[(Z)-(2″-pyridinyl)methylene]-3′-desacetoxycephalosporinate [Compound 6g]” here?
**A.** 173 µM

**Q.** And the IC50 [1, 4]?
**A.** 0.51 µM
